In patent US8053553B2, “Targeting host proteinases as a therapeutic strategy against viral and bacterial pathogens” (Socpra Sciences Sante Et Humaines, priority 2007, dated 2011):
Read-outs that look alike come from different tables or passages of the source. Non-standard residues stand in square brackets, D forms with d. Residues, ends and D or L forms follow the SMILES beside them. Ahx = NCCCCCC(=O)O; Sar = CNCC(=O)O

How the values were obtained:
PC4 = experiment: Ki, μM | PC4
PC7 = experiment: Ki, μM | PC7
PC5/6 = experiment: Ki, μM | PC5/6
PACE4 = experiment: Ki, μM | PACE4
furin = biological target: T1, furin (Homo sapiens, UniProt P09958); experiment: biochemical; settings: furin, Pyr-RTKR-AMC substrate, read-out: Ki
T1 construct: made in house; host or cells: Drosophila S2 cells (Invitrogen expression system)
T1 sequence (P09958 108-794 limits assumed): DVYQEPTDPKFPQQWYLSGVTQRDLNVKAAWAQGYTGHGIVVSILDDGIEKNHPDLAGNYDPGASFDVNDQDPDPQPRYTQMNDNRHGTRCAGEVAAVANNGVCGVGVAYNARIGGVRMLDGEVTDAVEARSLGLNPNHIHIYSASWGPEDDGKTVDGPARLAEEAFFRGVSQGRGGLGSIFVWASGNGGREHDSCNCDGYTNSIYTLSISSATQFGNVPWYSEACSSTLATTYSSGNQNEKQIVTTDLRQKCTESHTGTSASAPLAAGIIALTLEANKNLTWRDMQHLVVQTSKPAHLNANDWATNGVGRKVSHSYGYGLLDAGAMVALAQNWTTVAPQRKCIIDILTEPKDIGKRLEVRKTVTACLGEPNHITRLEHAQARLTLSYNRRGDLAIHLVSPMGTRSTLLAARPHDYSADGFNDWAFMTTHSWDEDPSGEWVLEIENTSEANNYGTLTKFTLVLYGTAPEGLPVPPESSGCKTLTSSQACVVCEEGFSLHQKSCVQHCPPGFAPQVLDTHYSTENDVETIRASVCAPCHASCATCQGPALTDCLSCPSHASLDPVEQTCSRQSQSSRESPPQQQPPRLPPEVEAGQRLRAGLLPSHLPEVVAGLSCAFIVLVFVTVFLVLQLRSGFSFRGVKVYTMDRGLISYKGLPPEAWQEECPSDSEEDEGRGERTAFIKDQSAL

[1] = alanine scanning mutagenesis of the H5 furin cleavage sequence (Table 2)
[2] = optimization of the inhibitory peptides (Table 3)

TPQRARRRKKRW
Ki (PC4): 0.952 µM | Ki (PC7): 0.172 µM | Ki (PC5/6): 0.433 µM | Ki (PACE4): 0.192 µM

TPQRARRRKKRY
Ki (PC4): 0.624 µM | Ki (PC7): 1.22 µM | Ki (PC5/6): 0.649 µM | Ki (PACE4): 1.02 µM

C[C@H](NC(=O)[C@H](CCCNC(=N)N)NC(=O)[C@@H]1CCCN1C(=O)[C@@H](N)[C@@H](C)O)C(=O)N[C@@H](CCCNC(=N)N)C(=O)N[C@@H](CCCNC(=N)N)C(=O)N[C@@H](CCCNC(=N)N)C(=O)N[C@@H](CCCCN)C(=O)N[C@@H](CCCCN)C(=O)N[C@@H](CCCNC(=N)N)C(=O)N[C@H](C(N)=O)[C@@H](C)O (H-TPRARRRKKRT-NH2)
Ki (PC4): 0.441 µM | Ki (PC7): 0.152 µM | Ki (PC5/6): 0.232 µM | Ki (PACE4): 0.162 µM

TPQRARRRKKRF
Ki (PC4): 0.772 µM | Ki (PC7): 1.13 µM | Ki (PC5/6): 0.806 µM | Ki (PACE4): 0.602 µM

TPQRARRRKKRT
Ki (PC4): 0.515 µM | Ki (PC7): 0.206 µM | Ki (PC5/6): 0.188 µM

TPRARRRKKRI
Ki (PC4): 0.562 µM | Ki (PC7): 0.135 µM | Ki (PC5/6): 0.492 µM | Ki (PACE4): 0.026 µM

C[C@H](NC(=O)[C@H](CCC(=O)O)NC(=O)[C@H](CCCNC(=N)N)NC(=O)[C@@H]1CCCN1C(=O)[C@@H](N)[C@@H](C)O)C(=O)N[C@@H](CCCNC(=N)N)C(=O)N[C@@H](CCCNC(=N)N)C(=O)N[C@@H](CCCCN)C(=O)N[C@@H](CCCCN)C(=O)N[C@@H](CCCNC(=N)N)C(=O)N(C)CC(N)=O (H-TPREARRKKR[Sar]-NH2)
Ki (furin; [1]): > 100 nM

CC(C)[C@H](NC(=O)[C@H](CCCNC(=N)N)NC(=O)[C@H](CCCCN)NC(=O)[C@H](CCCCN)NC(=O)[C@H](CCCNC(=N)N)NC(=O)[C@H](C)NC(=O)[C@H](CCCNC(=N)N)NC(=O)[C@H](CCC(=O)O)NC(=O)[C@H](CCCNC(=N)N)NC(=O)[C@@H]1CCCN1C(=O)[C@@H](N)[C@@H](C)O)C(N)=O (H-TPRERARKKRV-NH2)
Ki (furin; [1]): > 100 nM

C[C@H](NC(=O)[C@H](CCCNC(=N)N)NC(=O)[C@H](CCCNC(=N)N)NC(=O)[C@H](CCCNC(=N)N)NC(=O)[C@H](CCC(=O)O)NC(=O)[C@H](CCCNC(=N)N)NC(=O)[C@@H]1CCCN1C(=O)[C@@H](N)[C@@H](C)O)C(=O)N[C@@H](CCCCN)C(=O)N[C@@H](CCCNC(=N)N)C(=O)N(C)CC(N)=O (H-TPRERRRAKR[Sar]-NH2)
Ki (furin; [1]): > 100 nM

C[C@H](NC(=O)[C@H](CCCNC(=N)N)NC(=O)[C@H](CCC(N)=O)NC(=O)[C@@H]1CCCN1C(=O)[C@@H](N)[C@@H](C)O)C(=O)N[C@@H](CCCNC(=N)N)C(=O)N[C@@H](CCCNC(=N)N)C(=O)N[C@@H](CCCNC(=N)N)C(=O)N[C@@H](CCCCN)C(=O)N[C@@H](CCCCN)C(=O)N[C@@H](CCCNC(=N)N)C(=O)NCCCCCC(N)=O (H-TPQRARRRKKR[Ahx]-NH2)
Ki (furin; [2]): > 100 nM

CC(C)[C@H](NC(=O)[C@H](CCCNC(=N)N)NC(=O)[C@H](CCCCN)NC(=O)[C@H](C)NC(=O)[C@H](C)NC(=O)[C@H](CCCNC(=N)N)NC(=O)[C@H](CCCNC(=N)N)NC(=O)[C@H](CCC(=O)O)NC(=O)[C@H](CCCNC(=N)N)NC(=O)[C@@H]1CCCN1C(=O)[C@@H](N)[C@@H](C)O)C(N)=O (H-TPRERRAAKRV-NH2)
Ki (furin; [1]): > 100 nM

C[C@H](NC(=O)[C@H](CCCNC(=N)N)NC(=O)[C@H](CCC(N)=O)NC(=O)[C@@H]1CCCN1C(=O)[C@@H](N)[C@@H](C)O)C(=O)N[C@@H](CCCNC(=N)N)C(=O)N[C@@H](CCCNC(=N)N)C(=O)N[C@@H](CCCNC(=N)N)C(=O)N[C@@H](CCCCN)C(=O)N[C@@H](CCCCN)C(=O)N[C@@H](CCCNC(=N)N)C(=O)N[C@H](CCCCN)C(N)=O (H-TPQRARRRKKR[dK]-NH2)
Ki (furin; [2]): > 100 nM

C[C@@H](O)[C@H](N)C(=O)N1CCC[C@H]1C(=O)N[C@@H](CCC(N)=O)C(=O)N[C@@H](CCCNC(=N)N)C(=O)N[C@@H](Cc1c[nH]cn1)C(=O)N[C@@H](CCCNC(=N)N)C(=O)N[C@@H](CCCNC(=N)N)C(=O)N[C@@H](CCCNC(=N)N)C(=O)N[C@@H](CCCCN)C(=O)N[C@@H](CCCCN)C(=O)N[C@@H](CCCNC(=N)N)C(=O)NCC(N)=O (H-TPQRHRRRKKRG-NH2)
Ki (furin; [2]): > 100 nM

CC(C)[C@H](NC(=O)[C@H](CCCNC(=N)N)NC(=O)[C@H](CCCCN)NC(=O)[C@H](CCCCN)NC(=O)[C@H](CCCNC(=N)N)NC(=O)[C@H](CCCNC(=N)N)NC(=O)[C@H](CCCNC(=N)N)NC(=O)[C@H](C)NC(=O)[C@H](C)NC(=O)[C@@H]1CCCN1C(=O)[C@@H](N)[C@@H](C)O)C(N)=O (H-TPAARRRKKRV-NH2)
Ki (furin; [1]): > 100 nM

C[C@H](NC(=O)[C@H](C)NC(=O)[C@H](CCC(=O)O)NC(=O)[C@H](CCCNC(=N)N)NC(=O)[C@@H]1CCCN1C(=O)[C@@H](N)[C@@H](C)O)C(=O)N[C@@H](C)C(=O)N[C@@H](CCCCN)C(=O)N[C@@H](CCCCN)C(=O)N[C@@H](CCCNC(=N)N)C(=O)N(C)CC(N)=O (H-TPREAAAKKR[Sar]-NH2)
Ki (furin; [1]): > 100 nM

CC(C)[C@H](NC(=O)[C@H](CCCNC(=N)N)NC(=O)[C@H](CCCCN)NC(=O)[C@H](CCCCN)NC(=O)[C@H](CCCNC(=N)N)NC(=O)[C@H](CCCNC(=N)N)NC(=O)[C@H](CCCNC(=N)N)NC(=O)[C@H](CCC(=O)O)NC(=O)[C@H](C)NC(=O)[C@H](C)NC(=O)[C@@H](N)[C@@H](C)O)C(N)=O (H-TAAERRRKKRV-NH2)
Ki (furin; [1]): > 100 nM

C[C@H](NC(=O)[C@H](CCCNC(=N)N)NC(=O)[C@H](CCC(N)=O)NC(=O)[C@@H]1CCCN1C(=O)[C@@H](N)[C@@H](C)O)C(=O)N[C@@H](CCCNC(=N)N)C(=O)N[C@@H](CCCNC(=N)N)C(=O)N[C@@H](CCCNC(=N)N)C(=O)N[C@@H](CCCCN)C(=O)N[C@@H](CCCCN)C(=O)N[C@@H](CCCNC(=N)N)C(=O)N[C@@H](CCC(N)=O)C(N)=O (H-TPQRARRRKKRQ-NH2)
Ki (furin; [2]): > 100 nM

CC(C)[C@H](NC(=O)[C@H](CCCNC(=N)N)NC(=O)[C@H](CCCCN)NC(=O)[C@H](C)NC(=O)[C@H](CCCNC(=N)N)NC(=O)[C@H](CCCNC(=N)N)NC(=O)[C@H](CCCNC(=N)N)NC(=O)[C@H](CCC(=O)O)NC(=O)[C@H](CCCNC(=N)N)NC(=O)[C@@H]1CCCN1C(=O)[C@@H](N)[C@@H](C)O)C(N)=O (H-TPRERRRAKRV-NH2)
Ki (furin; [1]): > 100 nM

CC(C)[C@H](NC(=O)[C@H](CCCNC(=N)N)NC(=O)[C@H](CCCCN)NC(=O)[C@H](CCCCN)NC(=O)[C@H](CCCNC(=N)N)NC(=O)[C@H](CCCNC(=N)N)NC(=O)[C@H](CCCNC(=N)N)NC(=O)[C@H](CCC(=O)O)NC(=O)[C@H](CCCNC(=N)N)NC(=O)[C@@H]1CCCN1C(=O)[C@@H](N)[C@@H](C)O)C(N)=O (H-TPRERRRKKRV-NH2)
Ki (furin; [1]): > 100 nM

C[C@H](NC(=O)[C@H](CCCNC(=N)N)NC(=O)[C@H](CCC(=O)O)NC(=O)[C@H](CCCNC(=N)N)NC(=O)[C@@H]1CCCN1C(=O)[C@@H](N)[C@@H](C)O)C(=O)N[C@@H](CCCNC(=N)N)C(=O)N[C@@H](CCCCN)C(=O)N[C@@H](CCCCN)C(=O)N[C@@H](CCCNC(=N)N)C(N)=O (H-TPRERARKKR-NH2)
Ki (furin; [1]): > 100 nM

C[C@H](NC(=O)[C@H](C)NC(=O)[C@@H]1CCCN1C(=O)[C@@H](N)[C@@H](C)O)C(=O)N[C@@H](C)C(=O)N[C@@H](CCCNC(=N)N)C(=O)N[C@@H](CCCNC(=N)N)C(=O)N[C@@H](CCCCN)C(=O)N[C@@H](CCCCN)C(=O)N[C@@H](CCCNC(=N)N)C(N)=O (H-TPAAARRKKR-NH2)
Ki (furin; [1]): > 100 nM

C[C@H](NC(=O)[C@H](CCCNC(=N)N)NC(=O)[C@H](CCC(N)=O)NC(=O)[C@@H]1CCCN1C(=O)[C@@H](N)[C@@H](C)O)C(=O)N[C@@H](CCCNC(=N)N)C(=O)N[C@@H](CCCNC(=N)N)C(=O)N[C@@H](CCCNC(=N)N)C(=O)N[C@@H](CCCCN)C(=O)N[C@@H](CCCCN)C(=O)N[C@@H](CCCNC(=N)N)C(=O)N[C@@H](CC(=O)O)C(N)=O (H-TPQRARRRKKRD-NH2)
Ki (furin; [2]): 50 nM

C[C@H](NC(=O)[C@H](C)NC(=O)[C@@H]1CCCN1C(=O)[C@@H](N)[C@@H](C)O)C(=O)N[C@@H](CCCNC(=N)N)C(=O)N[C@@H](CCCNC(=N)N)C(=O)N[C@@H](CCCNC(=N)N)C(=O)N[C@@H](CCCCN)C(=O)N[C@@H](CCCCN)C(=O)N[C@@H](CCCNC(=N)N)C(N)=O (H-TPAARRRKKR-NH2)
Ki (furin; [1]): > 100 nM

C[C@H](NC(=O)[C@H](C)NC(=O)[C@@H](N)[C@@H](C)O)C(=O)N[C@@H](CCC(=O)O)C(=O)N[C@@H](CCCNC(=N)N)C(=O)N[C@@H](CCCNC(=N)N)C(=O)N[C@@H](CCCNC(=N)N)C(=O)N[C@@H](CCCCN)C(=O)N[C@@H](CCCCN)C(=O)N[C@@H](CCCNC(=N)N)C(=O)NCC(N)=O (H-TAAERRRKKRG-NH2)
Ki (furin; [1]): > 100 nM

C[C@H](NC(=O)[C@H](CCCNC(=N)N)NC(=O)[C@H](CCCNC(=N)N)NC(=O)[C@H](CCC(=O)O)NC(=O)[C@H](CCCNC(=N)N)NC(=O)[C@@H]1CCCN1C(=O)[C@@H](N)[C@@H](C)O)C(=O)N[C@@H](CCCCN)C(=O)N[C@@H](CCCCN)C(=O)N[C@@H](CCCNC(=N)N)C(=O)N(C)CC(N)=O (H-TPRERRAKKR[Sar]-NH2)
Ki (furin; [1]): > 100 nM

C[C@H](N)C(=O)N[C@@H](C)C(=O)N[C@@H](CCCNC(=N)N)C(=O)N[C@@H](CCC(=O)O)C(=O)N[C@@H](CCCNC(=N)N)C(=O)N[C@@H](CCCNC(=N)N)C(=O)N[C@@H](CCCNC(=N)N)C(=O)N[C@@H](CCCCN)C(=O)N[C@@H](CCCCN)C(=O)N[C@@H](CCCNC(=N)N)C(=O)NCC(N)=O (H-AARERRRKKRG-NH2)
Ki (furin; [1]): > 100 nM

C[C@H](NC(=O)[C@@H](N)[C@@H](C)O)C(=O)N[C@@H](CCCNC(=N)N)C(=O)N[C@@H](CCC(=O)O)C(=O)N[C@@H](CCCNC(=N)N)C(=O)N[C@@H](CCCNC(=N)N)C(=O)N[C@@H](CCCNC(=N)N)C(=O)N[C@@H](CCCCN)C(=O)N[C@@H](CCCCN)C(=O)N[C@@H](CCCNC(=N)N)C(N)=O (H-TARERRRKKR-NH2)
Ki (furin; [1]): > 100 nM

C[C@@H](O)[C@H](N)C(=O)N1CCC[C@H]1C(=O)N[C@@H](CCC(N)=O)C(=O)N[C@@H](CCCNC(=N)N)C(=O)N[C@H](CCC(=O)O)C(=O)N[C@@H](CCCNC(=N)N)C(=O)N[C@@H](CCCNC(=N)N)C(=O)N[C@@H](CCCNC(=N)N)C(=O)N[C@@H](CCCCN)C(=O)N[C@@H](CCCCN)C(=O)N[C@@H](CCCNC(=N)N)C(=O)NCC(N)=O [TPQReRRRKKRG]
Ki (furin; [2]): > 100 nM
